Measurements taken from US20110212948A1 (priority 2008, published 2011).
Read-outs that look alike come from different tables or passages of the source.

What was measured:
[1] = Multiple dose study: veterinary examination, haematology and serum biochemistry; conditions: 0.6 mg/kg every 12 hours for 14 days; except serum cholesterol
Method: Six foals were available for inclusion in this part of the study and were randomly assigned to treatment (four foals) or control groups (two foals). […] To ensure foals were recruited into the study within 4 weeks of birth, the study was performed twice, with 2 treated and one control foal in each replicate.
Foals were examined twice daily for the duration of the study. Staff responsible for veterinary examination of foals were blinded to treatment.
Peripheral blood samples were submitted for routine haematology and serum biochemistry at a commercial laboratory (Idexx Laboratories, Rydalmere, NSW) twice weekly (treatment days 0, 2, 6, 9, 13 and 16). Gastroscopy and urine analysis (Dip Stik and urine enzyme analysis1) were performed weekly on all foals.

[2] = current study, foals, single oral dose 0.6 mg/kg, mean ± SD
[3] = adult horses, cited from earlier work
[4] = in vivo, 0.6 mg/kg
[5] = adult horses, cited from earlier work; remark: listed apart in the source
[6] = Faecal occult blood testing with guaiac-based slides (Hemoccult Sensa); format: in vivo; conditions: treated and control foals, all occasions
Method: Faecal occult blood testing using guaiac-based slides (Hemoccult Sensa, Beckman Coulter Australia Pty Ltd, Gladesville, NSW) was evaluated for the detection of gastrointestinal bleeding in treated and control foals. This technique has been reported as a sensitive method for identifying gastric or right dorsal colon ulceration in adult horses (Pellegrini 2005). Faecal samples were collected on DSP days from all foals and processed according to the manufacturer's instructions. Tests were negative for blood (haemoglobin) on all occasions.

[7] = Multiple dose study: peak and trough plasma meloxicam concentrations; format: in vivo, foals
Method: Blood for ‘trough’ serum levels was collected from foals immediately prior to administration of morning treatment. ‘Peak’ plasma concentrations were determined from blood samples collected 2 hours following administration of the morning treatment (as per the schedule above).

[8] = Multiple dose study: gastroscopy; format: in vivo, foals
[9] = Bioequivalence study (CML039) Reference
[10] = Bioequivalence study (CML039) Test

Q: Which results are given for Cc1cnc(NC(=O)C2=C(O)c3ccccc3S(=O)(=O)N2C)s1 [meloxicam]?
A: Haematology and serum biochemistry, treated vs control foals [1]: no significant differences; Area under curve [2]: 3870.3 ng/mL/h; Cmax ([3]; Lees et al 1991 (IV administration)): 9230 ng/mL; Area under curve ([3]; Lees et al 1991): 14530 ng/mL/h; Cmax ([3]; Little et al 2007 (IV administration)): 9780 ng/mL; Area under curve ([3]; Little et al 2007): 33440 ng/mL/h; Cmax (oral admin) ([3]; Toutain et al 2004b): 2580 ng/mL; Bioavailability (fasted) ([3]; fasted, Toutain et al 2004b): 85.3; Bioavailability (fed) ([3]; fed, Toutain et al 2004b): 95.9; Adverse effects after a single oral dose (physical examination) [4]: no adverse effects; Albumin, mean post-Tx (±sem) ([4]; po): 29 (±1) g/L; Creatinine, median post-Tx ([4]; po): 0.09 mmol/L; Glucose, mean post-Tx (±sem) ([4]; po): 8.8 (±0.6) mmol/L; Haemoglobin, mean post-Tx (±sem) ([4]; po): 123 (±4) g/L; PCV, mean post-Tx (±sem) ([4]; po): 35 (±1) %; Potassium, median post-Tx ([4]; po): 4.0 mmol/L; Sodium, mean post-Tx (±sem) ([4]; po): 138 (±1) mmol/L; Urea, mean post-Tx (±sem) ([4]; po): 2.1 (±0.1) mmol/L; Area under curve [5, 9]: 10752.4 ng/mL/h; Cmax (oral admin) [5, 9]: 777.5 ng/mL; Tmax (oral admin) [5, 9]: 3.8 h; Area under curve [5, 10]: 11281.0 ng/mL/h; Tmax (oral admin) [5, 10]: 2.6 h; Faecal occult blood (haemoglobin) [6]: negative; Accumulation of drug in serum ([7]; foals, 0.6 mg/kg by mouth every 12 hours for 14 days): did not appear to accumulate; concentration at 14 days ([7]; horse, in vivo, foals less than 6 weeks, 0.6 mg/kg by mouth every 12 hours): 100 to 1000 ng/mL; concentration at 2 h ([7]; horse, in vivo, foals, 0.6 mg/kg by mouth every 12 hours for 14 days, 2 h after morning dose, read-out: Peak serum concentrations with repeated dosing): 500 to 1200 ng/mL; Gastroscopy finding, margo plicatus of a treated foal (FIG. 18) ([8]; Day 7 of multiple dose study): normal margo plicatus; Gastroscopy finding, treated foal F8 (FIG. 21) ([8]; Day 7 of multiple dose study, erythemia already present before single dose): superficial erosions of squamous mucosa; Gastroscopy finding, margo plicatus of same treated foal (FIG. 19) ([8]; Day 14 of multiple dose study): small, well circumscribed and very superficial ulcer; Gastric mucosal damage on gastroscopic examination ([8]; all foals, 0.6 mg/kg every 12 hours for 14 days): failed to identify evidence of significant gastric mucosal damage; Gastroscopy finding, treated foal F8 (FIG. 22) ([8]; following 14 days of treatment): no evidence of ongoing mucosal ulceration
